Calls of active or inactive are those of the source.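 How the source made its calls: active means mean IC50 of 15000 nM or lower against heat shock reporter, a sign of off-target artifact; inactive means the rest.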
Test system: C. elegans VP596 hsp-16.2 GFP/RFP heat-shock reporter fluorescence
Assay: heat-shock hsp-16.2 GFP reporter inhibition, SAR follow-up, counter-screen for SKN-1 inhibitor project, whole organism, C. elegans VP596, GFP/RFP ratio, round 3 (AID 743023)

Cc1sc(-c2ccncc2)nc1-c1ccc(F)cc1 was tested, and the IC50 was > 64 µM (inactive).
For Clc1ccc(-c2csc(-c3ccccc3)n2)cc1, the IC50 was > 64 µM (inactive).
With c1ccc(-c2nc(-c3cccnc3)cs2)cc1 the IC50 was > 64 µM (inactive).
Cc1ccc(-c2csc(-c3ccccc3)n2)cc1 was tested, and the IC50 was > 64 µM (inactive).
For Cc1sc(-c2ccncc2)nc1-c1ccc(Cl)cc1, the IC50 was > 64 µM (inactive).
In the case of CCCc1cc(-c2nc(-c3ccc(NS(C)(=O)=O)cc3)cs2)ccn1, the IC50 was > 64 µM (inactive).
With COc1ccc(-c2csc(-c3ccccc3)n2)cc1 the IC50 was > 64 µM (inactive).
Clc1ccc(-c2csc(-c3cccnc3)n2)cc1 was tested, and the IC50 was > 64 µM (inactive).
For COc1ccc(-c2csc(-c3cccnc3)n2)cc1, the IC50 was > 64 µM (inactive).
For Cc1sc(-c2ccncc2)nc1-c1ccccc1, the IC50 was > 64 µM (inactive).
COc1ccc(-c2csc(C3CCNCC3)n2)cc1 was tested, and the IC50 was > 64 µM (inactive).
c1ccc(-c2csc(C3CCNCC3)n2)cc1 was tested, and the IC50 was > 64 µM (inactive).
For N#Cc1ccc(-c2csc(-c3ccncc3)n2)cc1, the IC50 was > 64 µM (inactive).
In the case of CC(C)(C)c1csc(-c2ccncc2)n1, the IC50 was > 64 µM (inactive).
In the case of Clc1ccccc1-c1csc(-c2ccncc2)n1, the IC50 was > 64 µM (inactive).
In the case of Fc1ccc(-c2csc(-c3ccccn3)n2)cc1, the IC50 was > 64 µM (inactive).
In the case of Cc1ccccc1-c1csc(-c2ccncc2)n1, the IC50 was > 64 µM (inactive).
In the case of FC(F)(F)c1ccc(-c2csc(-c3ccncc3)n2)cc1, the IC50 was > 64 µM (inactive).
For COc1ccccc1-c1csc(-c2ccncc2)n1, the IC50 was > 64 µM (inactive).
For Fc1ccc(-c2csc(-c3ccccc3)n2)cc1, the IC50 was > 64 µM (inactive).
Clc1ccc(-c2csc(-c3ccncc3)n2)c(Cl)c1 was tested, and the IC50 was > 64 µM (inactive).
c1ccc(-c2csc(-c3cccnc3)n2)cc1 was tested, and the IC50 was > 64 µM (inactive).
Cc1cccc(-c2csc(-c3ccncc3)n2)c1 was tested, and the IC50 was > 64 µM (inactive).
With Cc1ccc(-c2nc(-c3ccncc3)sc2C)cc1 the IC50 was > 64 µM (inactive).
COc1cccc(-c2csc(-c3ccncc3)n2)c1 was tested, and the IC50 was > 64 µM (inactive).
With Fc1ccc(-c2csc(-c3cccnc3)n2)cc1 the IC50 was > 64 µM (inactive).
With Clc1cccc(-c2csc(-c3ccncc3)n2)c1 the IC50 was > 64 µM (inactive).
Cc1ccc(-c2csc(C3CCNCC3)n2)cc1 was tested, and the IC50 was > 64 µM (inactive).
c1ccc(-c2csc(-c3ccccn3)n2)cc1 was tested, and the IC50 was > 64 µM (inactive).
With c1cc(-c2nc(C3CC3)cs2)ccn1 the IC50 was > 64 µM (inactive).
For Cc1csc(-c2ccncc2)n1, the IC50 was > 64 µM (inactive).
COc1ccc(-c2csc(-c3ccccn3)n2)cc1 was tested, and the IC50 was > 64 µM (inactive).
For Fc1ccc(-c2csc(C3CCNCC3)n2)cc1, the IC50 was > 64 µM (inactive).
Clc1ccc(-c2csc(C3CCNCC3)n2)cc1 was tested, and the IC50 was > 64 µM (inactive).
In the case of Fc1ccc(-c2csc(-c3ccncc3)n2)cc1, the IC50 was > 64 µM (inactive).
With COC(=O)c1ccc(-c2csc(-c3ccncc3)n2)cc1 the IC50 was > 64 µM (inactive).
With Clc1ccc(-c2csc(-c3ccncc3)n2)cc1Cl the IC50 was > 64 µM (inactive).
COc1ccc(-c2nc(-c3ccncc3)sc2C)cc1 was tested, and the IC50 was > 64 µM (inactive).
With Clc1ccc(-c2csc(-c3ccccn3)n2)cc1 the IC50 was > 64 µM (inactive).
For Cc1ccc(-c2csc(-c3cccnc3)n2)cc1, the IC50 was > 64 µM (inactive).
With Clc1ccc(-c2csc(-c3ccncc3)n2)cc1 the IC50 was > 64 µM (inactive).
c1ccc(-c2csc(-c3ccncc3)n2)cc1 was tested, and the IC50 was > 64 µM (inactive).
For COc1ccc(-c2csc(-c3ccncc3)n2)cc1, the IC50 was > 64 µM (inactive).
With Cc1ccc(-c2csc(-c3ccccn3)n2)cc1 the IC50 was > 64 µM (inactive).
CCCc1cc(-c2nc(-c3ccc(C)cc3)cs2)ccn1 was tested, and the IC50 was > 64 µM (inactive).
In the case of Cc1ccc(-c2csc(-c3ccncc3)n2)cc1, the IC50 was > 64 µM (inactive).
In the case of Cc1sc(C2CCNCC2)nc1-c1ccccc1, the IC50 was > 64 µM (inactive).
With c1cc(-c2nc(-c3nccs3)cs2)ccn1 the IC50 was > 64 µM (inactive).

— PubChem BioAssay AID743023 (Sanford-Burnham Center for Chemical Genomics, 2013)
